Target: canine TRPM8 (Canis lupus familiaris, UniProt Q1A7N1)
Assay: In Vitro Canine TRPM8 Functional Assay (Ca2+ fluorescence, icilin activation)
Assay type: cell-based
Conditions: for IC50: HEK293 cells stably expressing canine TRPM8, icilin activation, eight-point dose-response, read-out: IC50; for inhibition at 0.2 µM / % Inh @ 0.2 (μM): compound at 0.2 μM, canine TRPM8, icilin activation; for inhibition at 0.2 µM: read-out: % Inh @ 0.2
Summary of the method: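 Cells (HEK293, stable canine TRPM8) are seeded 24 h before assay. They are then dye-loaded with Calcium 3 at 37 °C followed by room temperature. Compound is added and monitored for 5 min, after which icilin (~80% maximal response) is added.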

canine TRPM8, sequence (Q1A7N1 1-1104): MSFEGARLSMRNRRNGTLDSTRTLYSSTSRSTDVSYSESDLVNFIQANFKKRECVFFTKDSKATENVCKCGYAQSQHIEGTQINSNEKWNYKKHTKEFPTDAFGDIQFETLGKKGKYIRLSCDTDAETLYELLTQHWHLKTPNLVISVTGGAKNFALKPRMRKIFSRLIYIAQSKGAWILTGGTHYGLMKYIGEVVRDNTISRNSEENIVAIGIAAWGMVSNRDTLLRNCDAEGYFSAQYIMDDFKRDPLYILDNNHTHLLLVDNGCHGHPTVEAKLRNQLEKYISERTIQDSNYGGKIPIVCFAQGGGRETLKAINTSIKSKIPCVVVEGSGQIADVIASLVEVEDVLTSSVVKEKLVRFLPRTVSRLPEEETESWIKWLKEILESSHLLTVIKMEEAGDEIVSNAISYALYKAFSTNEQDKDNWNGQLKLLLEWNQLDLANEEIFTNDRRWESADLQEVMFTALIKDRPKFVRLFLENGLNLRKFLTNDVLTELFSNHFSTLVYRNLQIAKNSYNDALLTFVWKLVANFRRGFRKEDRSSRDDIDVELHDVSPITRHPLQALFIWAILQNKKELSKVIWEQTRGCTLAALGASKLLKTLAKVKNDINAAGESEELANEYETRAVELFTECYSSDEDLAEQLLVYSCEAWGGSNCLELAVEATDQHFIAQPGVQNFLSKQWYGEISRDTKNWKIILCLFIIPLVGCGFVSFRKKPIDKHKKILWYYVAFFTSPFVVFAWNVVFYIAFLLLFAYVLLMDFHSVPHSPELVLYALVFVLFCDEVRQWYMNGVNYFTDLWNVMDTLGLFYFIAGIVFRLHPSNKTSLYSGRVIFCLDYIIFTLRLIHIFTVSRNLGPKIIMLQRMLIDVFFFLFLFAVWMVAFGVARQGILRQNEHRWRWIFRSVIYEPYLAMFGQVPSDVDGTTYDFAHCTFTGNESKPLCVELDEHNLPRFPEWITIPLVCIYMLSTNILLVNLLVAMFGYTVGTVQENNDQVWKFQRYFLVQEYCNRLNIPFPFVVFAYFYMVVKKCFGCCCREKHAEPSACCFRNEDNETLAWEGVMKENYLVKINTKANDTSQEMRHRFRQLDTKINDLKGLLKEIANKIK

CCCCN(C1=C(OC)c2ccccc2S1(=O)=O)S(=O)(=O)c1ccc(C(=O)OC)cc1 [Compound 436, N-(Butyl)-N-(3-methoxy-1,1-dioxo-1H-benzo[b]thiophen-2-yl)-4-carbomethoxy-benzenesulfonamide]
IC50: 4 nM
inhibition at 0.2 µM: 89%

O=C(O)c1ccc(S(=O)(=O)N(CC2CCC2)c2sc3ccccc3c2Br)cc1 [Compound 437, N-(3-Bromo-benzo[b]thiophen-2-yl)-N-(cyclobutylmethyl)-4-carboxy-benzenesulfonamide]
IC50: 9 nM
inhibition at 0.2 µM: 92%

O=C(O)c1ccc(S(=O)(=O)N(CC2CCCC2)c2sc3ccccc3c2Br)cc1 [Compound 438, N-(3-Bromo-benzo[b]thiophen-2-yl)-N-(cyclopentylmethyl)-4-carboxy-benzenesulfonamide]
IC50: 2 nM
inhibition at 0.2 µM: 90%

O=C(O)c1ccc(S(=O)(=O)N(C[C@@H]2C[C@@H]3CC[C@H]2C3)c2sc3ccccc3c2Br)cc1 [Compound 439, RS,RS—N-(Bicyclo[2.2.1]heptan-2-ylmethyl)-N-(3-bromobenzo[b]thiophen-2-yl)-4-carboxy-benzenesulfonamide]
IC50: 2 nM
% Inh @ 0.2 (μM): 86%

O=C(O)c1ccc(S(=O)(=O)N(CC2CCOCC2)c2sc3ccccc3c2Br)cc1 [Compound 440, N-(3-Bromo-benzo[b]thiophen-2-yl)-N-((tetrahydro-2H-pyran-4-yl)methyl)-4-carboxy-benzenesulfonamide]
IC50: 14 nM
inhibition at 0.2 µM: 84%

CN(C)CCN(c1sc2ccccc2c1Br)S(=O)(=O)c1ccc(C(=O)O)cc1 [Compound 441, N-(3-Bromo-benzo[b]thiophen-2-yl)-N-(2-(dimethylamino)ethyl)-4-carboxy-benzenesulfonamide]
inhibition at 0.2 µM: 37%

CCCCN(c1cc2ccccc2s1)S(=O)(=O)c1ccc(-c2noc(=O)[nH]2)cc1 [Compound 442, N-(Benzo[b]thiophen-2-yl)-N-(butyl)-4-(5-oxo-4,5-dihydro-[1,2,4]oxadiazol-3-yl)-benzenesulfonamide]
IC50: 67 nM
inhibition at 0.2 µM: 81%

CCCCN(c1sc2ccccc2c1Br)S(=O)(=O)c1ccc(-c2noc(=O)[nH]2)cc1 [Compound 443, N-(3-Bromo-benzo[b]thiophen-2-yl)-N-(butyl)-4-(5-oxo-4,5-dihydro-[1,2,4]oxadiazol-3-yl)-benzenesulfonamide]
IC50: 14 nM
inhibition at 0.2 µM: 94%

CCCCN(c1cc2ccccc2s1)S(=O)(=O)c1ccc(N(C)C)cc1 [Compound 444, N-(Benzo[b]thiophen-2-yl)-N-(butyl)-4-dimethylamino-benzenesulfonamide]
IC50: 122 nM
inhibition at 0.2 µM: 92%

CCCCN(c1cc2ccccc2s1)S(=O)(=O)c1ccc(N2CCCC2)cc1 [Compound 445, N-(Benzo[b]thiophen-2-yl)-N-(butyl)-4-pyrrolidin-1-yl-benzenesulfonamide]
inhibition at 0.2 µM: 58%

CCCCN(c1cc2ccccc2s1)S(=O)(=O)c1ccc(N2CCOCC2)cc1 [Compound 446, N-Benzo[b]thiophen-2-yl-N-(butyl)-4-morpholin-4-yl-benzenesulfonamide]
IC50: 96 nM
inhibition at 0.2 µM: 82%

CCCCN(c1cc2ccccc2s1)S(=O)(=O)c1ccc(N2CCN(C)CC2)cc1 [Compound 447, N-(Benzo[b]thiophen-2-yl)-N-(butyl)-4-(4-methyl-piperazin-1-yl)-benzenesulfonamide]
inhibition at 0.2 µM: 19%

CCCCN(c1sc2ccccc2c1C)S(=O)(=O)c1cccnc1N(C)C [Compound 448, N-(3-Methyl-benzo[b]thiophen-2-yl)-N-(butyl)-2-dimethylamino-pyridin-3-yl-sulfonamide]
IC50: 12 nM
inhibition at 0.2 µM: 102%

CCCCN(c1cc2ccccc2s1)S(=O)(=O)c1ccc(-c2nnn[nH]2)cc1 [Compound 449, N-(Benzo[b]thiophen-2-yl)-N-(butyl)-4-(1H-tetrazol-5-yl)-benzenesulfonamide]
IC50: 88 nM
inhibition at 0.2 µM: 97%

CCCCN(c1sc2cc(F)ccc2c1C)S(=O)(=O)c1ccc(C(=O)O)cc1 [Compound 450, N-(6-Fluoro-3-methyl-benzo[b]thiophen-2-yl)-N-(butyl)-4-carboxy-benzenesulfonamide]
IC50: 29 nM
inhibition at 0.2 µM: 101%

O=C(O)c1ccc(S(=O)(=O)N(CCCC(F)(F)F)c2cc3ccccc3s2)cc1 [Compound 451, N-(Benzo[b]thiophen-2-yl)-N-(4,4,4-trifluoro-butyl)-4-carboxy-benzenesulfonamide]
IC50: 68 nM
inhibition at 0.2 µM: 97%

CC(C)CN(c1sc2ccccc2c1Br)S(=O)(=O)c1ccc(C(=O)O)cc1 [Compound 452, N-(3-Bromo-benzo[b]thiophen-2-yl)-N-(isobutyl)-4-carboxy-benzenesulfonamide]
IC50: 18 nM
inhibition at 0.2 µM: 101%

O=C(O)c1ccc(S(=O)(=O)N(CCOC2CCCCC2)c2sc3ccccc3c2Br)cc1 [Compound 453, N-(3-Bromo-benzo[b]thiophen-2-yl)-N-(2-(cyclohexyloxy)ethyl)-4-carboxy-benzenesulfonamide]
IC50: 2 nM
inhibition at 0.2 µM: 101%

COC(C)(C)CCN(c1sc2ccccc2c1Br)S(=O)(=O)c1ccc(C(=O)O)cc1 [Compound 454, N-(3-Bromo-benzo[b]thiophen-2-yl)-N-(3-methoxy-3-methylbutyl)-4-carboxy-benzenesulfonamide]
IC50: 4 nM
inhibition at 0.2 µM: 101%

Cc1c(N(Cc2ccc(F)c(C(F)(F)F)c2)S(=O)(=O)c2cccc(-c3nnn[nH]3)c2)sc2ccccc12 [Compound 455, N-(3-Methyl-benzo[b]thiophen-2-yl)-N-(4-fluoro-3-trifluoromethyl-benzyl)-3-(1H-tetrazol-5-yl)-benzenesulfonamide]
IC50: 36 nM
inhibition at 0.2 µM: 101%

O=C(O)c1ccc(S(=O)(=O)N(CCC(F)(F)F)c2cc3ccccc3s2)cc1 [Compound 456, N-(Benzo[b]thiophen-2-yl)-N-(3,3,3-trifluoro-propyl)-4-carboxy-benzenesulfonamide]
inhibition at 0.2 µM: 67%

CN(C)C(=O)c1c(N(Cc2ccc(F)c(C(F)(F)F)c2)S(=O)(=O)c2ccccc2)sc2ccccc12 [Compound 457, N-(3-Dimethyl-carbamoyl-benzo[b]thiophen-2-yl)-N-(4-fluoro-3-trifluoromethyl-benzyl)-benzenesulfonamide]
IC50: 47 nM
% Inh @ 0.2 (μM): 93%

CNC(=O)c1c(N(Cc2ccc(F)c(C(F)(F)F)c2)S(=O)(=O)c2ccccc2)sc2ccccc12 [Compound 458, N-(3-Methyl-carbamoyl-benzo[b]thiophen-2-yl)-N-(4-fluoro-3-trifluoromethyl-benzyl)-benzenesulfonamide]
IC50: 12 nM
% Inh @ 0.2 (μM): 102%

NC(=O)c1c(N(Cc2ccc(F)c(C(F)(F)F)c2)S(=O)(=O)c2ccccc2)sc2ccccc12 [Compound 459, N-(3-Carbamoyl-benzo[b]thiophen-2-yl)-N-(4-fluoro-3-trifluoromethyl-benzyl)-benzenesulfonamide]
IC50: 9 nM
inhibition at 0.2 µM: 102%

CC(=O)C1=C(N(Cc2ccc(F)c(C(F)(F)F)c2)S(=O)(=O)c2ccccc2)S(=O)(=O)c2ccccc21 [Compound 460, N-(3-Acetyl-1,1-dioxo-1H-benzo[b]thiophen-2-yl)-N-(4-fluoro-3-trifluoromethyl-benzyl)-benzenesulfonamide]
IC50: 8 nM
inhibition at 0.2 µM: 102%

CN(C)S(=O)(=O)c1cccc(S(=O)(=O)N(CCC(F)(F)F)c2cc3ccccc3s2)c1 [Compound 461, N-(Benzo[b]thiophen-2-yl)-N-(3,3,3-trifluoro-propyl)-3-dimethylsulfamoyl-benzenesulfonamide]
inhibition at 0.2 µM: 30%

CN(C)S(=O)(=O)c1cccc(S(=O)(=O)N(Cc2ccc(F)c(C(F)(F)F)c2)c2cc3ccccc3s2)c1 [Compound 462, N-(Benzo[b]thiophen-2-yl)-N-(4-fluoro-3-trifluoromethyl-benzyl)-3-N′,N′-dimethylsulfamoyl-benzenesulfonamide]
% Inh @ 0.2 (μM): 22%

CC(C)(O)C1=C(N(Cc2ccc(F)c(C(F)(F)F)c2)S(=O)(=O)c2ccccc2)S(=O)(=O)c2ccccc21 [Compound 463, N-(4-Fluoro-3-trifluoromethyl-benzyl)-N-[3-(1-hydroxy-1-methyl-ethyl)-1,1-dioxo-benzo[b]thiophen-2-yl]-benzenesulfonamide]
IC50: 26 nM
inhibition at 0.2 µM: 101%

CC(O)C1=C(N(Cc2ccc(F)c(F)c2)S(=O)(=O)c2ccccc2)S(=O)(=O)c2ccccc21 (stereo not shown) [Compound 464, N-(3,4-Difluoro-benzyl)-N-[3-(1-hydroxy-ethyl)-1,1-dioxo-benzo[b]thiophen-2-yl]-benzenesulfonamide]
IC50: 7 nM
inhibition at 0.2 µM: 102%

CCCCN(c1sc2ccccc2c1C(N)=O)S(=O)(=O)c1ccc(C(=O)OC)cc1 [Compound 465, N-(Butyl)-N-(3-carbamoyl-benzo[b]thiophen-2-yl)-4-carbomethoxy-benzenesulfonamide]
IC50: 63 nM
inhibition at 0.2 µM: 90%

CCCCN(c1sc2ccccc2c1C(=O)NC)S(=O)(=O)c1ccc(C(=O)OC)cc1 [Compound 466, N-(Butyl)-N-(3-methyl-carbamoyl-benzo[b]thiophen-2-yl)-4-carbomethoxy-benzenesulfonamide]
% Inh @ 0.2 (μM): 66%

CCCCN(c1sc2ccccc2c1C(=O)N(C)C)S(=O)(=O)c1ccc(C(=O)OC)cc1 [Compound 467, N-(Butyl)-N-(3-dimethyl-carbamoyl-benzo[b]thiophen-2-yl)-4-carbomethoxy-benzenesulfonamide]
IC50: 20 nM
% Inh @ 0.2 (μM): 100%

CCCCN(c1sc2ccccc2c1C(N)=O)S(=O)(=O)c1ccc(C(=O)O)cc1 [Compound 468, N-(Butyl)-N-(3-carbamoyl-benzo[b]thiophen-2-yl)-4-carboxy-benzenesulfonamide]
inhibition at 0.2 µM: 16%

From US9434711B2 (Janssen Pharmaceutica, NV, priority 2007, dated 2016)
